Source: ChEMBL document CHEMBL6127034, “Design, synthesis and biological evaluation of a novel PAK1 degrader for the treatment of triple negative breast cancer” (Bioorg Med Chem, 2024)
Active and inactive are the calls of the source. The calls are words filed in the database; no cut-off is given here.

Key:
MDA-MB-231 [1] = experiment: Antiproliferative activity against human MDA-MB-231 cells assessed as decrease in Ki-67 expression at 5 uM incubated for 24 hrs by immunofluorescence based analysis; format: functional, cell-based
[2] = biological target: T1, Serine/threonine-protein kinase PAK 1 (Homo sapiens, UniProt Q13153); experiment: In vivo inhibition of PAK1 phosphorylation at S199 in human MDA-MB-231 cells xenografted in BALB/c mouse at 20 mg/kg, ip qd for 12 days by Western blot analysis; format: functional, organism-based; conditions: time 12.0 day
T1 sequence (Q13153 whole entry): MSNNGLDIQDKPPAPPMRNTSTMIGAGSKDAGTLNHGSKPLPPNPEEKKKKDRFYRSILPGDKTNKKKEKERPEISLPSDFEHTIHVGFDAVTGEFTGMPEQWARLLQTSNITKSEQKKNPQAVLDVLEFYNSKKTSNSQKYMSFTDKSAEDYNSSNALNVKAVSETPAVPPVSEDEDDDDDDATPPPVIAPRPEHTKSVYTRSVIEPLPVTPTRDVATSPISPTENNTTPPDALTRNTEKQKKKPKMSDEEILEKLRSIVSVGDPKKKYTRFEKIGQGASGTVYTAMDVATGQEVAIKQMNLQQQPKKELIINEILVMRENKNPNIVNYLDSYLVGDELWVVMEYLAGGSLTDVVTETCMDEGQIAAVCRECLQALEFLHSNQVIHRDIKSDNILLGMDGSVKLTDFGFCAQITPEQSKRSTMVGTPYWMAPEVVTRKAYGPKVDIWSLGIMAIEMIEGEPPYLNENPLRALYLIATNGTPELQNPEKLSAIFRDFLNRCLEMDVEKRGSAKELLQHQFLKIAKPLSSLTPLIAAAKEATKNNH

MDA-MB-231 [3] = experiment: Induction of apoptosis in human MDA-MB-231 cells assessed as increase in Bax level at 2.5 to 10 uM incubated upto 48 hrs by Western blot analysis; format: functional, cell-based; conditions: dose 2.5-10 µM
[4] = Toxicity in BALB/c mouse xenografted with human MDA-MB-231 cells assessed as animal growth at 20 mg/kg, ip qd for 12 days; format: organism-based; conditions: in vivo, 288 h, time 12 day
MDA-MB-231 [5] = experiment: Induction of apoptosis in human MDA-MB-231 cells assessed as early apoptotic cells at 2.5 to 10 uM incubated for 12 hrs by Annexin V-FITC/PI staining based flow cytometry (reference value: 1.70 %); format: functional; conditions: dose 2.5-10 µM
MDA-MB-231 [6] = experiment: Induction of apoptosis in human MDA-MB-231 cells assessed as late apoptotic cells at 2.5 to 10 uM incubated for 48 hrs by Annexin V-FITC/PI staining based flow cytometry (reference value: 2.46 %); format: functional; conditions: dose 2.5-10 µM
MDA-MB-231 [7] = experiment: Antiproliferative activity against human MDA-MB-231 cells assessed as decrease in green fluorescence by EdU staining based analysis; format: functional, cell-based
MDA-MB-231 [8] = experiment: Antiproliferative activity against human MDA-MB-231 cells assessed as decrease in colony formation by crystal violet staining based analysis; format: functional, cell-based; conditions: dose <= 10.0 µM
[9] = biological target: Serine/threonine-protein kinase PAK 2 (Homo sapiens) (UniProt Q13177); experiment: Inhibition of PAK2 in human MDA-MB-231 cells incubated upto 48 hrs by Western blot analysis; format: cell-based
Serine/threonine-protein kinase PAK 2 (Homo sapiens), sequence (Q13177 whole entry): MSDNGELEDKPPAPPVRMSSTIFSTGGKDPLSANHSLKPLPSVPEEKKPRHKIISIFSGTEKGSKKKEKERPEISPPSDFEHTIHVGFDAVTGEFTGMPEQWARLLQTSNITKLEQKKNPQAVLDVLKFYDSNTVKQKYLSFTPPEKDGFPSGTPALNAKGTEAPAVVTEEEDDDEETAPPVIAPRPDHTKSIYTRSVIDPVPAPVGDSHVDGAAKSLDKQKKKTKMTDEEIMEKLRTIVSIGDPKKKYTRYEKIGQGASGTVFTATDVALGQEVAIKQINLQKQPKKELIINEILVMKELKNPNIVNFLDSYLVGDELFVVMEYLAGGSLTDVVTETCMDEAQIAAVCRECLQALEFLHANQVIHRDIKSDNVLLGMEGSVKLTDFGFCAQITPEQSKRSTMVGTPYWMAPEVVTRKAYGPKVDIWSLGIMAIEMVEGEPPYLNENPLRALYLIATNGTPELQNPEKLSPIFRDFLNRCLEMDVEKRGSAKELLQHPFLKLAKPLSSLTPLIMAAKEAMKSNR

[10] = biological target: T1, Serine/threonine-protein kinase PAK 1; experiment: Induction of thermal stability of PAK1 in human MDA-MB-231 cells at 10 uM under 37 to 67 degreeC heat exposure by CETSA; format: cell-based
MDA-MB-231 [11] = experiment: Inhibition of cell proliferation of human MDA-MB-231 cells assessed as decrease in Ki-67 expression at 2.5 uM incubated for 24 hrs by immunofluorescence based analysis; format: functional
MDA-MB-231 [12] = experiment: Antitumor activity against human MDA-MB-231 cells xenografted in BALB/c mouse assessed as reduction in tumor growth rate at 20 mg/kg, ip qd for 12 days; format: functional, organism-based; conditions: time 12.0 day
[13] = biological target: T1, Serine/threonine-protein kinase PAK 1; experiment: Binding affinity to CM5 chip-immobilized recombinant PAK1 (unknown origin) by SPR analysis
MDA-MB-231 [14] = experiment: Induction of apoptosis in human MDA-MB-231 cells xenografted in BALB/c mouse assessed as increase in cleaved caspase-3 level at 20 mg/kg, ip qd for 12 days by Western blot analysis; format: functional, organism-based; conditions: time 12.0 day
[15] = biological target: T1, Serine/threonine-protein kinase PAK 1; experiment: Inhibition of PAK1 in human MDA-MB-231 cells assessed as decrease in ERK1/2 phosphorylation at Thr202/Tyr204 incubated upto 48 hrs by Western blot analysis; format: cell-based
MDA-MB-231 [16] = experiment: Induction of apoptosis in human MDA-MB-231 cells assessed as late apoptotic cells at 2.5 uM incubated for 12 to 48 hrs by Annexin V-FITC/PI staining based flow cytometry (reference value: 1.48 %); format: functional; conditions: time 12-48 hrs
MDA-MB-231 [17] = experiment: Induction of apoptosis in human MDA-MB-231 cells assessed as necrotic cells at 2.5 to 10 uM incubated for 24 hrs by Annexin V-FITC/PI staining based flow cytometry (reference value: 1.08 %); format: functional; conditions: dose 2.5-10 µM
MDA-MB-231 [18] = experiment: Inhibition of cell migration in human MDA-MB-231 cells upto 10 uM incubated upto 48 hrs by wound healing assay; format: functional, cell-based
MDA-MB-231 [19] = experiment: Induction of apoptosis in human MDA-MB-231 cells assessed as early apoptotic cells at 2.5 uM incubated for 12 to 48 hrs by Annexin V-FITC/PI staining based flow cytometry (reference value: 1.12 %); format: functional; conditions: time 12-48 hrs
MDA-MB-231 [20] = experiment: Induction of apoptosis in human MDA-MB-231 cells assessed as necrotic cells at 2.5 to 10 uM incubated for 12 hrs by Annexin V-FITC/PI staining based flow cytometry (reference value: 1.08 %); format: functional; conditions: dose 2.5-10 µM
MDA-MB-231 [21] = experiment: Induction of apoptosis in human MDA-MB-231 cells assessed as late apoptotic cells at 2.5 to 10 uM incubated for 12 hrs by Annexin V-FITC/PI staining based flow cytometry (reference value: 2.46 %); format: functional; conditions: dose 2.5-10 µM
MDA-MB-231 [22] = experiment: Induction of apoptosis in human MDA-MB-231 cells assessed as increase in cleaved caspase-8 level at 2.5 to 10 uM incubated upto 48 hrs by Western blot analysis; format: functional, cell-based; conditions: dose 2.5-10 µM
MDA-MB-231 [23] = experiment: Induction of apoptosis in human MDA-MB-231 cells assessed as viable cells at 2.5 to 10 uM incubated for 24 hrs by Annexin V-FITC/PI staining based flow cytometry (reference value: 94.8 %); format: functional; conditions: dose 2.5-10 µM
MDA-MB-231 [24] = experiment: Induction of apoptosis in human MDA-MB-231 cells xenografted in BALB/c mouse assessed as decrease in MMP-2 at 20 mg/kg, ip qd for 12 days by Western blot analysis; format: functional, organism-based; conditions: time 12.0 day
MDA-MB-231 [25] = experiment: Induction of apoptosis in human MDA-MB-231 cells assessed as necrotic cells at 2.5 uM incubated for 12 to 48 hrs by Annexin V-FITC/PI staining based flow cytometry (reference value: 0.43 %); format: functional; conditions: time 12-48 hrs
MDA-MB-231 [26] = experiment: Induction of apoptosis in human MDA-MB-231 cells assessed as late apoptotic cells at 2.5 to 10 uM incubated for 24 hrs by Annexin V-FITC/PI staining based flow cytometry (reference value: 2.46 %); format: functional; conditions: dose 2.5-10 µM
MDA-MB-231 [27] = experiment: Antiproliferative activity against human MDA-MB-231 cells incubated for 48 hrs by MTT assay; format: functional, cell-based; conditions: MDA-MB-231, 48 h
MDA-MB-231 [28] = experiment: Induction of apoptosis in human MDA-MB-231 cells assessed as viable cells at 2.5 uM incubated for 12 to 48 hrs by Annexin V-FITC/PI staining based flow cytometry (reference value: 97.0 %); format: functional; conditions: time 12-48 hrs, read-out: Activity
MDA-MB-231 [29] = experiment: Induction of apoptosis in human MDA-MB-231 cells assessed as increase in cleaved PARP level at 2.5 to 10 uM incubated upto 48 hrs by Western blot analysis; format: functional, cell-based; conditions: dose 2.5-10 µM
MDA-MB-231 [30] = experiment: Inhibition of cell proliferation of human MDA-MB-231 cells at 2.5 uM by EdU staining based analysis; format: functional
MDA-MB-231 [31] = experiment: Inhibition of formation of human MDA-MB-231 cells tumor sphere by crystal violet staining based analysis; format: functional, cell-based; conditions: time <= 48.0 hrs, TDE = time-dependent effect
MDA-MB-231 [32] = experiment: Induction of apoptosis in human MDA-MB-231 cells assessed as decrease in Bcl-2 level at 2.5 to 10 uM incubated upto 48 hrs by Western blot analysis; format: functional, cell-based; conditions: dose 2.5-10 µM
MDA-MB-231 [33] = experiment: Inhibition of cell migration in human MDA-MB-231 cells assessed as increase in E-Cadherin level by Western blot analysis; format: functional, cell-based; conditions: time <= 48.0 hrs, TDE = time-dependent effect
MDA-MB-231 [34] = experiment: Induction of apoptosis in human MDA-MB-231 cells xenografted in BALB/c mouse assessed as increase in E-Cadherin level at 20 mg/kg, ip qd for 12 days by Western blot analysis; format: functional, organism-based; conditions: time 12.0 day

## Cc1ncsc1-c1ccc([C@H](C)NC(=O)[C@@H]2C[C@@H](O)CN2C(=O)[C@@H](NC(=O)CCc2cn(CCCCCCCn3c(=O)c(-c4ccc(Cl)cc4Cl)cc4cnc(NC5CC5)nc43)nn2)C(C)(C)C)cc1
MDA-MB-231 [1]
  Activity: Active
[2]
  inhibition: Active
MDA-MB-231 [3]
  Activity: Active
[4]
  Activity: Non-Toxic
MDA-MB-231 [5]
  Activity: 4.37%
MDA-MB-231 [6]
  Activity: 4.94%
MDA-MB-231 [7]
  Activity: Active
MDA-MB-231 [8]
  Activity: Dose-Dependent Effect
[9]
  inhibition: inactive
[10]
  Activity: Active
MDA-MB-231 [11]
  inhibition: Active
MDA-MB-231 [12]
  Activity: Active
[13]
  Activity: Dose-Dependent Effect
MDA-MB-231 [14]
  Activity: Active
[15]
  inhibition: Active
MDA-MB-231 [16]
  Activity: 8.21%
MDA-MB-231 [17]
  Activity: 4.92%
MDA-MB-231 [18]
  inhibition: Active
MDA-MB-231 [19]
  Activity: 5.62%
MDA-MB-231 [20]
  Activity: 3.7%
MDA-MB-231 [21]
  Activity: 5.67%
MDA-MB-231 [22]
  Activity: Active
MDA-MB-231 [23]
  Activity: 76.6%
MDA-MB-231 [24]
  Activity: Active
MDA-MB-231 [25]
  Activity: 1.4%
MDA-MB-231 [26]
  Activity: 6.74%
MDA-MB-231 [27]
  IC50: 1270 nM
MDA-MB-231 [28]
  viability at 2.5 µM: 84.8%
MDA-MB-231 [29]
  Activity: Active
MDA-MB-231 [30]
  inhibition: Active
MDA-MB-231 [31]
  inhibition: Tde
MDA-MB-231 [32]
  Activity: Active
MDA-MB-231 [33]
  inhibition: Tde
MDA-MB-231 [34]
  Activity: Active
